What was measured:
kynurenine = assay: Tumoral kynurenine levels, CT26 murine tumor model (Example 13); format: in vivo, mouse; details: Study 2; INCB024360 oral gavage twice daily
CTLA-4 [1] = target: CTLA-4 (Mus musculus, UniProt P09793); details: CTLA-4 from mice; cited from earlier work
CTLA-4 [2] = target: T1, CTLA-4 (Oryctolagus cuniculus, UniProt P42072); details: CTLA-4 from rabbits; cited from earlier work
T1 sequence (P42072 36-223): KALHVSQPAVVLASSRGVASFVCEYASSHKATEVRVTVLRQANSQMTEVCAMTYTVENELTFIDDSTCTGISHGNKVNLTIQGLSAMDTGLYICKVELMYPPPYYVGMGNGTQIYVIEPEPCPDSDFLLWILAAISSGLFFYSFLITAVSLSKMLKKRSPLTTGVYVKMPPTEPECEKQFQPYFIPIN

CTLA-4 [3] = target: T2, CTLA-4 (Rattus norvegicus, UniProt Q62859); details: CTLA-4 from rats; cited from earlier work
T2 sequence (Q62859 1-223): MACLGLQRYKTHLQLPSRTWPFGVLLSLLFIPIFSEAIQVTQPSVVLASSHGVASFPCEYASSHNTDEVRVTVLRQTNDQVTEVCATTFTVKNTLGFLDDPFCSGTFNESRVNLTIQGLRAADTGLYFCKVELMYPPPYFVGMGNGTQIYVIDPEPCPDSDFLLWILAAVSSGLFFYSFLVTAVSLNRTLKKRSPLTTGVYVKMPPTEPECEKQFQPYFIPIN

[4] = tested on: NK cells, γδT cells and CD8+ T cells; details: upon treatment; cited from earlier work

Chain of CTLA-4 (Mus musculus, UniProt P09793) (P09793 36-223): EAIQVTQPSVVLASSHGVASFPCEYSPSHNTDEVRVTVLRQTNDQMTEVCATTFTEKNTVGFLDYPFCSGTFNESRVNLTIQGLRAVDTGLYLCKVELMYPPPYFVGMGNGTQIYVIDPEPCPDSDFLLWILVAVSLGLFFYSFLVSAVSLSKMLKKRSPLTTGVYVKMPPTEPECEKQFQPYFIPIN

In the case of `NS(=O)(=O)NCCNc1nonc1C(=NO)Nc1ccc(F)c(Br)c1` [INCB024360], the “Intratumoral kynurenine levels, SYN2028 compared with INCB024360” value (kynurenine) is reported as “similar”.

In the case of Ipilimumab, the “cross-reactivity with or binding to CTLA-4” value (“cross-reactivity” below) (CTLA-4 [1]) is given as “did not show cross-reactivity with or binding to”, the “cross-reactivity” value (CTLA-4 [2]) is given as “did not show cross-reactivity with or binding to” and the “cross-reactivity” value (CTLA-4 [3]) is given as “did not show cross-reactivity with or binding to”.

For “recombinant human IL-15: recombinant human IL-15 of a first-in-human clinical trial”, the “expansion of NK cells” value [4] is given as 10 fold and the “proliferation of γδT cells and CD8+ T cells” value [4] is given as “significantly increased”.

Reference: patent US11471494B2, “Microorganisms programmed to produce immune modulators and anti-cancer therapeutics in tumor cells” (Synlogic Operating Company, Inc., priority 2017, dated 2022)
